Data from the CheMixHub viscosity set.
± gives the uncertainty stated by the source.

Experiment: xn = mol fraction of the nth substance listed

CC(O)CO (centres undefined) + CO
viscosity [mPa·s], 101 kPa
Conditions | x1 = 0.1 | x1 = 0.2 | x1 = 0.3 | x1 = 0.4 | x1 = 0.5 | x1 = 0.6 | x1 = 0.7 | x1 = 0.8 | x1 = 0.9
298.15 K | 0.8967 ± 0.024 | 1.436 ± 0.038 | 2.244 ± 0.06 | 3.432 ± 0.092 | 5.254 ± 0.14 | 7.972 ± 0.22 | 12.13 ± 0.34 | 18.51 ± 0.53 | 28.39 ± 0.83
308.15 K | 0.7629 ± 0.02 | 1.187 ± 0.031 | 1.814 ± 0.048 | 2.731 ± 0.072 | 4.083 ± 0.11 | 6.016 ± 0.16 | 8.726 ± 0.23 | 12.53 ± 0.34 | 17.88 ± 0.49
318.15 K | 0.6278 ± 0.017 | 0.9689 ± 0.026 | 1.457 ± 0.039 | 2.129 ± 0.057 | 3.054 ± 0.082 | 4.33 ± 0.12 | 6.037 ± 0.16 | 8.242 ± 0.23 | 11.2 ± 0.31

Cc1ccccn1 + CO
101 kPa
Conditions | viscosity [mPa·s]
298.23 K, x1 = 0.4451 | 0.774 ± 0.01
298.23 K, x1 = 0.5511 | 0.782 ± 0.01
298.25 K, x1 = 0.1201 | 0.641 ± 0.008
298.28 K, x1 = 0.6483 | 0.784 ± 0.011
298.28 K, x1 = 0.8299 | 0.76 ± 0.011
303.15 K, x1 = 0.2351 | 0.671 ± 0.008
303.16 K, x1 = 0.1201 | 0.6 ± 0.007
303.22 K, x1 = 0.6483 | 0.733 ± 0.01
303.22 K, x1 = 0.8299 | 0.714 ± 0.01
303.25 K, x1 = 0.4451 | 0.722 ± 0.009
303.26 K, x1 = 0.5511 | 0.729 ± 0.01
308.17 K, x1 = 0.1201 | 0.562 ± 0.007
308.23 K, x1 = 0.6483 | 0.686 ± 0.009
308.23 K, x1 = 0.8299 | 0.669 ± 0.01
308.25 K, x1 = 0.5511 | 0.682 ± 0.009
308.26 K, x1 = 0.4451 | 0.676 ± 0.009
308.38 K, x1 = 0.2351 | 0.625 ± 0.008
313.21 K, x1 = 0.2351 | 0.587 ± 0.007
313.22 K, x1 = 0.1201 | 0.522 ± 0.006
313.27 K, x1 = 0.6483 | 0.645 ± 0.009
313.27 K, x1 = 0.8299 | 0.631 ± 0.009
313.28 K, x1 = 0.4451 | 0.633 ± 0.008
313.28 K, x1 = 0.5511 | 0.641 ± 0.009
318.25 K, x1 = 0.2351 | 0.55 ± 0.007
318.26 K, x1 = 0.1201 | 0.49 ± 0.006
318.29 K, x1 = 0.6483 | 0.606 ± 0.008
318.29 K, x1 = 0.8299 | 0.592 ± 0.009
318.35 K, x1 = 0.5511 | 0.601 ± 0.008
318.36 K, x1 = 0.4451 | 0.594 ± 0.008

ClC=C(Cl)Cl + CO
viscosity [mPa·s], 101 kPa
Conditions | 293.15 K | 303.15 K | 313.15 K | 323.15 K
x2 = 0.017 | 0.554 ± 0.011 | 0.507 ± 0.01 | 0.466 ± 0.01 | 0.429 ± 0.009
x2 = 0.057 | 0.56 ± 0.011 | 0.509 ± 0.01 | 0.466 ± 0.01 | 0.427 ± 0.009
x2 = 0.152 | 0.58 ± 0.012 | 0.523 ± 0.011 | 0.476 ± 0.01 | 0.435 ± 0.009
x2 = 0.1523 | – | 0.56 ± 0.0074 | 0.524 ± 0.007 | 0.473 ± 0.0063
x2 = 0.286 | 0.605 ± 0.012 | 0.541 ± 0.011 | 0.485 ± 0.01 | 0.441 ± 0.009
x2 = 0.3071 | – | 0.55 ± 0.0073 | 0.518 ± 0.0069 | 0.4735 ± 0.0063
x2 = 0.446 | – | 0.54 ± 0.0072 | 0.511 ± 0.0068 | 0.473 ± 0.0063
x2 = 0.562 | 0.656 ± 0.013 | 0.576 ± 0.012 | 0.508 ± 0.011 | 0.452 ± 0.01
x2 = 0.5963 | – | 0.53 ± 0.0071 | 0.505 ± 0.0067 | 0.474 ± 0.0063
x2 = 0.6 | 0.667 ± 0.013 | 0.581 ± 0.012 | 0.513 ± 0.011 | 0.455 ± 0.01
x2 = 0.699 | 0.674 ± 0.013 | 0.59 ± 0.012 | 0.519 ± 0.011 | 0.461 ± 0.01
x2 = 0.72 | 0.67 ± 0.013 | 0.587 ± 0.012 | 0.517 ± 0.011 | 0.458 ± 0.01
x2 = 0.756 | – | 0.518 ± 0.0069 | 0.497 ± 0.0066 | 0.475 ± 0.0063
x2 = 0.78 | 0.663 ± 0.013 | 0.578 ± 0.012 | 0.508 ± 0.011 | 0.45 ± 0.01
x2 = 0.9011 | – | 0.508 ± 0.0068 | 0.492 ± 0.0065 | 0.476 ± 0.0063
x2 = 0.92 | 0.62 ± 0.012 | 0.543 ± 0.011 | 0.477 ± 0.01 | 0.423 ± 0.009

O=C1CCCC1 + COC(=O)c1ccccc1
viscosity [mPa·s], 101 kPa
Conditions | x2 = 0.0744 | x2 = 0.1523 | x2 = 0.2344 | x2 = 0.3214 | x2 = 0.418 | x2 = 0.5133 | x2 = 0.6186 | x2 = 0.737 | x2 = 0.8638
303.15 K | 1.058 ± 0.013 | 1.115 ± 0.013 | 1.176 ± 0.014 | 1.223 ± 0.014 | 1.284 ± 0.014 | 1.339 ± 0.014 | 1.407 ± 0.014 | 1.481 ± 0.015 | 1.573 ± 0.015
313.15 K | 0.91 ± 0.01 | 0.946 ± 0.013 | 0.984 ± 0.013 | 1.026 ± 0.013 | 1.071 ± 0.013 | 1.116 ± 0.013 | 1.164 ± 0.013 | 1.218 ± 0.014 | 1.285 ± 0.014

ClC=C(Cl)Cl + COCCO
viscosity [mPa·s], 101.33 kPa
Conditions | x1 = 0.1175 | x1 = 0.2132 | x1 = 0.3211 | x1 = 0.4746 | x1 = 0.5328 | x1 = 0.6149 | x1 = 0.7063 | x1 = 0.8042 | x1 = 0.9056
303.15 K | 1.317 ± 0.034 | 1.181 ± 0.031 | 1.041 ± 0.028 | 0.86 ± 0.023 | 0.804 ± 0.022 | 0.731 ± 0.02 | 0.659 ± 0.019 | 0.597 ± 0.017 | 0.546 ± 0.016
313.15 K | 1.074 ± 0.029 | 0.981 ± 0.026 | 0.88 ± 0.024 | 0.746 ± 0.021 | 0.703 ± 0.02 | 0.648 ± 0.018 | 0.591 ± 0.017 | 0.543 ± 0.016 | 0.504 ± 0.015

NC1CCCCC1 + COCCO
308.15 K, 101 kPa
Conditions | viscosity [mPa·s]
x2 = 0.1393 | 1.314 ± 0.017
x2 = 0.267 | 1.303 ± 0.017
x2 = 0.3844 | 1.298 ± 0.016
x2 = 0.4927 | 1.29 ± 0.016
x2 = 0.593 | 1.294 ± 0.016
x2 = 0.6861 | 1.283 ± 0.016
x2 = 0.7727 | 1.263 ± 0.016
x2 = 0.8536 | 1.254 ± 0.016
x2 = 0.9291 | 1.242 ± 0.016

ClC=C(Cl)Cl + COc1ccccc1
303.15 K, 101.3 kPa
Conditions | viscosity [mPa·s]
x2 = 0.1234 | 0.523 ± 0.009
x2 = 0.1791 | 0.541 ± 0.009
x2 = 0.2335 | 0.561 ± 0.009
x2 = 0.2818 | 0.577 ± 0.01
x2 = 0.4018 | 0.623 ± 0.01
x2 = 0.5204 | 0.672 ± 0.011
x2 = 0.5501 | 0.682 ± 0.011
x2 = 0.648 | 0.73 ± 0.012
x2 = 0.7243 | 0.765 ± 0.012
x2 = 0.8135 | 0.814 ± 0.013
